Reference: patent US9238620B1, “Pharmaceutical uses of sulfur-containing compound” (NATIONAL SUN YAT-SEN UNIVERSITY, priority 2014, dated 2016)

How the values were obtained:
MMP-2 = assay: Gelatin zymography of A549 conditioned medium, MMP-2; format: cell-based, Human; conditions: A549 cells, 20, 30, or 40 μg/mL, 24 h
Experimental: (§1) Phytomedicine 2012, 19, 768-778). Briefly, the culture medium was electrophoresed (80 V for 120 min) in an 8% SDS-PAGE gel containing 0.1% gelatin. The gel was then washed at room temperature in a solution containing 2.5% (v/v) Triton X-100 with two changes and subsequently transferred to a reaction buffer for enzymatic reaction containing 1% NaN3; 10 mM CaCl2; and 40 mM Tris-HCl, pH 8.0; at 37° C. with shaking overnight (for 12-15 h). Finally, the MMP gel was stained for […] with 0.25% (w/v) Coomassie blue in 10% acetic acid (v/v) and 20% methanol (v/v) and destained in 10% acetic acid (v/v) and 20% methanol (v/v).

FAK = assay: Western blotting in A549 cells, FAK phosphorylation; format: cell-based, Human; conditions: A549 cells, 20, 30, or 40 μg/mL, 24 h
Experimental: (§2) A549 cells were plated in 10-cm dishes at a density of 3×10^6 cells per dish and incubated with 20, 30 or 40 μg/mL dihydroaustrasulfone alcohol in F-12 containing 1% (v/v) FBS for 24 h. The cells were collected, lysed in a lysis solution, and then incubated at 25° C. for 10 min. Total proteins were separated with SDS-PAGE before being transferred to PVDF membranes. The membranes were blocked with 5% (v/v) nonfat dry milk in PBS-Tween 20 for one hour and changed to an appropriate dilution of specific primary antibodies in TBS-T buffer overnight at 4° C. The blots were then incubated with horseradish peroxidase-linked secondary antibody for 1 h and then developed with the […] (ECL) reagent and exposed to Hyperfilm (Amersham, Arlington Height, Ill., USA). The data were analyzed by Gel-Logic 200 Imaging Systems, Molecular Imaging Software.

A549 cells [1] = assay: Wound healing assay; format: cell-based, Human; conditions: 30 and 40 μg/mL, 18 h
Experimental: For cell motility determination, A549 cells (2×10^5 cells/mL) were seeded in a 12-well tissue culture plate. After one day, the center of the cell monolayers was scraped with a sterile micropipette tip to create a straight zone (gap) of constant width. Then, each well was washed with PBS, and A549 cells were exposed to various concentrations of dihydroaustrasulfone alcohol (20, 30 or 40 μg/mL). Wound closure was monitored and photographed at 0 h and 18 h with a Nikon inverted microscope. To quantify the migrated cells, pictures of the initial wounded monolayers were compared with the corresponding pictures of cells at the end of the incubation. Artificial lines fitting the cutting edges were drawn on pictures of the original wounds and overlaid on the pictures of cultures after incubation. Cells that had migrated across the white lines were counted in six random fields from each triplicate treatment.

A549 cells [2] = assay: Trans-well cell migration assay; format: cell-based, Human; conditions: 30 or 40 μg/mL
Experimental: Tumor cell migration was assayed in trans-well chambers (Millipore) according to the method reported by Huang et al. (Lai, K. C.; Huang, A. C.; Hsu, S. C.; Kuo, C. L.; Yang, J. S.; Wu, S. H.; Chung, J. G. Benzyl isothiocyanate (BITC) inhibits migration and invasion of human colon cancer HT29 cells by inhibiting matrix metalloproteinase-2/-9 and urokinase plasminogen (uPA) through PKC and MAPK signaling pathway. J. Agric. Food Chem. 2010, 58, 2935-2942), with some modifications. Briefly, trans-well chambers with 6.5 mm polycarbonate filters of […] pore size were used. A549 cells (1×10^4 cells/mL) and 20, 30 or 40 μg/mL of dihydroaustrasulfone alcohol were suspended in F-12 (100 μL, serum free), placed in the upper trans-well chamber, and incubated for 24 h at 37° C. Then, the cells on the upper surface of the filter were completely wiped away with a cotton swab, and the lower surface of the filter was fixed in methanol, stained with 10% Giemsa solution, and counted under a microscope at a magnification of 200×. For each replicate, the tumor cells in 10 randomly selected fields were determined and the counts were averaged.

AKT = assay: Western blotting in A549 cells, AKT phosphorylation; format: cell-based, Human; conditions: A549 cells, 20, 30, or 40 μg/mL, 24 h
Experimental: as §2

A549 cells [3] = assay: Flow cytometry analysis of cell cycle and apoptosis (sub-G1); format: cell-based, Human; conditions: 20 and 40 μg/mL, treatment for 24 h
Experimental: A549 cells (2×10^5) were seeded into each well of a 12-well plate (TPP; Techno Plastic Products AG, Trasadingen, Switzerland) 24 h before being treated with various concentrations of dihydroaustrasulfone alcohol for 24 h. The cells were harvested with trypsin-EDTA, washed twice with 10 mL ice-cold PBS, fixed in 70% (v/v) ethanol, and kept at 4° C. The cells were then stained with propidium iodide (PI) [100 μg/mL PI, 0.2% (v/v) Nonidet P-40, and 1 mg/mL RNase A (DNase-free) in PBS lacking Ca^2+ and Mg^2+ at a 1:1:1 ratio by volume] and the DNA contents were analyzed with flow cytometry (Becton Dickinson, San Jose, Calif., USA). The intensity of PI fluorescence was linearly amplified, and both the area and width of the fluorescence pulse were measured. Ten thousand events were acquired, and the percentage of hypodiploid (apoptosis, sub-G1) events and the percentages of cells in the G0/G1, S and G2/M phases were determined using the DNA analysis software ModFitL T, version 2.0 (Verity Software, Topsham, Me., USA).

PI3K = assay: Western blotting in A549 cells, PI3K protein level; format: cell-based, Human; conditions: A549 cells, 20, 30, or 40 μg/mL, 24 h
Experimental: as §2

MMP-9 = assay: Gelatin zymography of A549 conditioned medium, MMP-9; format: cell-based, Human; conditions: A549 cells, 20, 30, or 40 μg/mL, 24 h
Experimental: as §1

JNK1/2 = assay: Western blotting in A549 cells, JNK1/2 phosphorylation; format: cell-based, Human; conditions: A549 cells, 20, 30, or 40 μg/mL, 24 h
Experimental: as §2

[4] = tested on: Lewis lung carcinoma (LLC); assay: Lewis lung carcinoma-bearing tumor model, tumor size; format: in vivo, C57BL/6J mice; conditions: 8 or 16 mg/kg IP daily, 14-day treatment
Experimental: (§3) The animal experiments were approved by the Institutional Animal Care and Use Committee of China Medical University (approval ID: 102-194-C). All animal care followed the institutional animal ethical guidelines of China Medical University. C57BL/6J male mice (average 25-28 g; 6 weeks old) were obtained from the Laboratory Animal Center, College of Medicine, National Taiwan University (Taipei, Taiwan). The C57BL/6J mice were kept on a 12 h light/dark cycle at 25° C. C57BL/6J mice were subcutaneously implanted with LLC cells (7×10^5 cells in 100 μL). The treatment of dihydroaustrasulfone alcohol start while all the tumors volume were larger than 100 mm^3. Eighteen mice were randomly assigned to three treatment groups (6 animals per group). Group I (untreated group) was subcutaneously grafted with LLC cells and given vehicle solvent. Group II was grafted with LLC cells and then treated with dihydroaustrasulfone alcohol (8 mg/kg). Group III was grafted with LLC cells and then treated with dihydroaustrasulfone alcohol (16 mg/kg). The dihydroaustrasulfone alcohol was diluted in normal saline and administered by IP. Body weight and tumor volume were measured every week after cell injection. The tumor width (W) and length (L) were measured every week by calipers, and the tumor volume was calculated as L×W2×0.52. The mice were treated daily for 2 weeks and then sacrificed.

[5] = Lewis lung carcinoma-bearing tumor model, body weight; format: in vivo, C57BL/6J mice; conditions: 8 or 16 mg/kg IP, days 8 or 14
Experimental: as §3

ERK1/2 = assay: Western blotting in A549 cells, ERK1/2 phosphorylation; format: cell-based, Human; conditions: A549 cells, 20, 30, or 40 μg/mL, 24 h
Experimental: as §2

A549 cells [6] = assay: MTT cell proliferation (cytotoxicity) assay; format: cell-based, Human
Experimental: The MTT assay was performed in the A549 cell lines to measure the cytotoxicity of dihydroaustrasulfone alcohol. All cell lines were seeded in 96-well plates with 2×10^4 cells/well in culture medium. Dihydroaustrasulfone alcohol was dissolved in PBS. The cells were treated with various concentrations of dihydroaustrasulfone alcohol as indicated in each figure. After 24 h, the number of viable cells was determined. Then, 5 mg/mL MTT was added to each well, and the plate was incubated at 37° C. for 3 h. The medium was removed, and 50 μL DMSO was added. The absorbance at 590 nm was measured for each well on an ELISA reader. The data are presented as the mean±SEM of three independent experiments.

**Q.** What does the source list for `CC(=O)CCS(=O)(=O)CCO` [dihydroaustrasulfone alcohol]?
**A.** activity of MMP-2 (MMP-2): significantly inhibited; phosphorylation of FAK (FAK): reduced phosphorylation of FAK; migration of A549 cells (wound healing) (A549 cells [1]): significantly decreased; migration of A549 cells (trans-well) (A549 cells [2]): significantly decreased; phosphorylation of AKT (AKT): decrease in the phosphorylation; apoptosis in the sub-G1 phase (A549 cells [3]): no effect; protein levels of PI3K (PI3K): inhibited the protein levels of PI3K in a dose-dependent manner; activity of MMP-9 (MMP-9): significantly inhibited; phosphorylation of JNK1/2 (JNK1/2): inhibited; tumor size compared with the LLC control group [4]: significantly reduced; body weights compared with the LLC control group [5]: not significantly different; phosphorylation of ERK1/2 (ERK1/2): inhibited; cell viability (A549 cells [6]; 60, 80, and 100 μg/mL, 24 h): significantly suppressed; IC50 (A549 cells [6]; Homo sapiens, A549, 24 h, read-out: IC50, viability of A549 cells): 273 µM
